Source: patent US20050101595A1, “N-containing cycloalkyl-substituted amino-thiazole derivatives and pharmaceutical compositions for inhibiting cell proliferation and methods for their use” (PFIZER INC., priority 2003, published 2005)
Counter-ions that a name gives are not always drawn. Like-named read-outs stand apart in the source and are kept apart here.

How the values were obtained:
CDK2/Cyclin A = CDK2/Cyclin A (Homo sapiens, UniProt P24941); experiment: Inhibition of CDK2/Cyclin A Retinoblastoma Kinase Activity; format: biochemical; conditions: for CDK2 % Inhibition At 0.03 μM: Table 2; for Ki: apparent Ki, CDK2/proteolyzed cyclin A, Rb fragment substrate, 25 μM ATP
Outline: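 Baculovirus-expressed CDK2 complexed with proteolyzed cyclin A (10 or 19 nM), Rb fragment substrate, 25 μM [32P/33P]ATP, HEPES pH 7.4, 30 °C for 60 or 75 min under initial-rate conditions. Filter capture and phosphorimager readout; apparent Ki fitted to competitive or tight-binding competitive inhibition.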

HCT-116 cell line = experiment: Inhibition of cell growth, tetrazolium salt (MTT) assay; format: cell-based; conditions: for HCT-116 % Inhibition at 0.25 μM: 0.25 μM compound; for IC50: Homo sapiens, HCT-116, 120 h, MTT, three to five days, read-out: HCT-116 IC50
Outline: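 McCoy's 5A cultures; 4 h pre-incubation; compound dilutions in 0.5% v/v DMSO; 3–5 d, 37° C, 5% CO2; MTT 0.2 mg/mL final, 4 h; formazan dissolved in DMSO, A540; vs 0.5% DMSO vehicle.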

[1] = target: human CDK4 and genetically truncated (1-264) cyclin D3 (Homo sapiens, UniProt P11802); experiment: Inhibition of CDK4/Cyclin D Retinoblastoma Kinase Activity; format: biochemical; conditions: for Ki: apparent Ki, CDK4/truncated cyclin D3, Rb fragment substrate, 25 μM ATP
Chain of human CDK4 and genetically truncated (1-264) cyclin D3 (P11802 whole entry, the tested form may be a part): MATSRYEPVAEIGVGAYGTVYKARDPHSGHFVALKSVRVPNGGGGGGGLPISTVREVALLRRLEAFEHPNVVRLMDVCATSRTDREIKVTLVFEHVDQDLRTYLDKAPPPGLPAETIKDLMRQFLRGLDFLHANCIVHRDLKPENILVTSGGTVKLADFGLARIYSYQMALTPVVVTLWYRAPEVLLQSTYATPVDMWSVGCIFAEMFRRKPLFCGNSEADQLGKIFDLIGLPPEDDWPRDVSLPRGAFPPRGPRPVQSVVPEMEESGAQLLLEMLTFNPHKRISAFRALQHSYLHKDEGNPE
Chain of human CDK4 and genetically truncated (1-264) cyclin D3 (P30281 1-264 partner): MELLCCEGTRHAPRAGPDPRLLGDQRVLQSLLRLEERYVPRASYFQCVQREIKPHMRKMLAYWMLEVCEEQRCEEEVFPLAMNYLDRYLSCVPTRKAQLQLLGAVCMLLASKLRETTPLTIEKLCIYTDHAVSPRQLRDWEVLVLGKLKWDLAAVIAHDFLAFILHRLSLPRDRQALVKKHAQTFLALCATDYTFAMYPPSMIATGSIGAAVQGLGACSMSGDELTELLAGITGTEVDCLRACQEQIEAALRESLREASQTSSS
Outline: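 Human CDK4/truncated cyclin D3 (1-264) complex from baculovirus-infected insect cells, 5 nM, phosphorylating Rb fragment (residues 386-928, His-tagged) with 25 μM [32/33P]ATP in HEPES pH 7.4, MgCl2, 2% DMSO at 30° C. for 20 min (60 min for tight binders). Filter-captured radioactivity by phosphorimager; apparent Ki from competitive or tight-binding fits.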

[2] = 0.1 μM compound, HCT-116, Table 4
[3] = 0.03 μM compound, Table 4, 0.03 µM

COc1cc(C(=O)N2CCC(Nc3nc(N)c(C(=O)c4c(F)cccc4F)s3)CC2)cc(OC)c1OC [Example Q22]
CDK2 % Inhibition at 0.03 μM (CDK2/Cyclin A; 0.03 μM compound, Table 4): 24% | HCT-116 % Inhibition at 0.1 μM (HCT-116 cell line; [2]): 16% | HCT-116 % Inhibition at 0.25 μM (HCT-116 cell line; HCT-116, Table 4): 48% | CDK4 % Inhibition at 0.03 μM ([1]; 0.03 μM compound, Table 4): 73%

CCCC(C)C(=O)N1CCC(Nc2nc(N)c(C(=O)c3c(F)cccc3F)s2)CC1 (centres unmarked) [Example R165]
CDK2 % Inhibition at 0.03 μM (CDK2/Cyclin A; at 0.03 μM): 3% | HCT-116 % Inhibition at 0.1 μM (HCT-116 cell line; HCT-116 cells, at 0.1 μM): 0% | HCT-116 5 Inhibition at 0.25 μM (HCT-116 cell line; HCT-116 cells): 42 | CDK4 % Inhibition at 0.03 μM ([1]; at 0.03 μM): 22%

Cc1ccc(NC(=O)N2CCC(Nc3nc(N)c(C(=O)c4c(F)cccc4F)s3)CC2)cc1C [Example O48]
CDK2 % Inhibition At 0.03 μM (CDK2/Cyclin A; 0.03 μM compound): 28% | HCT-116 % Inhibition at 0.25 μM (HCT-116 cell line; HCT-116, Table 2): 16% | CDK4 % Inhibition at 0.03 μM ([1]; 0.03 μM compound, Table 2): 11%

CCCCCCNC(=O)N1CCC(Nc2nc(N)c(C(=O)c3c(F)cccc3F)s2)CC1 [Example O58]
CDK2 % Inhibition At 0.03 μM (CDK2/Cyclin A; 0.03 μM compound): 34% | HCT-116 % Inhibition at 0.25 μM (HCT-116 cell line; HCT-116, Table 2): 42% | CDK4 % Inhibition at 0.03 μM ([1]; 0.03 μM compound, Table 2): 6%

Nc1nc(NC2CCN(S(=O)(=O)c3ccc(NCC(O)CO)nc3)CC2)sc1C(=O)c1c(F)cccc1F (centres unmarked) [Example G19, 1-(4-Amino-2-{1-[6-(2,3-dihydroxy-propylamino)-pyridine-3-sulfonyl]-piperidin-4-ylamino}-thiazol-5-yl)-1-(2,6-difluoro-phenyl)-methanone]
Ki (CDK2/Cyclin A): 2 nM | IC50 (HCT-116 cell line; first HCT-116 column (c4)): 4100 nM | IC50 (HCT-116 cell line; second HCT-116 column (c5)): > 5000 nM | Ki [1]: 3.4 nM

C[C@@H]1CN(CCCS(=O)(=O)N2CCC(Nc3nc(N)c(C(=O)c4c(F)cccc4F)s3)CC2)C[C@H](C)N1 [Example K1, 1-(4-Amino-2-{1-[3-(3,5-cis-dimethylpiperazin-1-yl)-propane-1-sulfonyl]-piperidin-4-ylamino}-thiazol-5-yl)-1-(2,6-difluoro-phenyl)-methanone]
Ki (CDK2/Cyclin A): 7.8 nM | IC50 (HCT-116 cell line; first HCT-116 column (c4)): > 5000 nM | IC50 (HCT-116 cell line; second HCT-116 column (c5)): > 5000 nM | Ki [1]: 2 nM

CCOC(=O)CCNC(=O)N1CCC(Nc2nc(N)c(C(=O)c3c(F)cccc3F)s2)CC1 [Example O73]
CDK2 % Inhibition At 0.03 μM (CDK2/Cyclin A; 0.03 μM compound): 29% | HCT-116 % Inhibition at 0.25 μM (HCT-116 cell line; HCT-116, Table 2): 42% | CDK4 % Inhibition at 0.03 μM ([1]; 0.03 μM compound, Table 2): 4%

Cc1ccc(S(=O)(=O)N2CCC(Nc3nc(N)c(C(=O)c4c(F)cccc4F)s3)CC2)cc1 [Example F15, {4-Amino-2-[1-(toluene-4-sulfonyl)-piperidin-4-ylamino]-thiazol-5-yl}-(2,6-difluoro-phenyl)-methanone]
Ki (CDK2/Cyclin A): 2.8 nM | IC50 (HCT-116 cell line; first HCT-116 column (c4)): 410 nM | IC50 (HCT-116 cell line; second HCT-116 column (c5)): 1200 nM | Ki [1]: 3.4 nM

Nc1nc(NC2CCN(C(=O)c3cccs3)CC2)sc1C(=O)c1c(F)cccc1F [Example Q61]
CDK2 % Inhibition at 0.03 μM (CDK2/Cyclin A; [3]): 41% | HCT-116 % Inhibition at 0.1 μM (HCT-116 cell line; 0.1 μM compound, HCT-116, Table 4, 0.1 µM): 0% | HCT-116 % Inhibition at 0.25 μM (HCT-116 cell line; HCT-116, Table 4, 0.25 µM): 34% | CDK4 % Inhibition at 0.03 μM [1, 3]: 49%

Nc1nc(NC2CCN(S(=O)(=O)c3ccc(-c4cccnc4)nc3)CC2)sc1C(=O)c1c(F)cccc1F [Example I6, 1-{4-Amino-2-[1-([2,3′]bipyridinyl-5-sulfonyl)-piperidin-4-ylamino]-thiazol-5-yl}-1-(2,6-difluoro-phenyl)-methanone Hydrochloride]
Ki (CDK2/Cyclin A): 0.32 nM | IC50 (HCT-116 cell line; first HCT-116 column (c4)): 37 nM | IC50 (HCT-116 cell line; second HCT-116 column (c5)): 110 nM | Ki [1]: 0.37 nM

Nc1nc(NC2CCN(C(=O)COCc3ccccc3)CC2)sc1C(=O)c1c(F)cccc1F [Example Q75]
CDK2 % Inhibition at 0.03 μM (CDK2/Cyclin A; 0.03 μM compound, Table 4): 9% | HCT-116 % Inhibition at 0.1 μM (HCT-116 cell line; [2]): 5% | HCT-116 % Inhibition at 0.25 μM (HCT-116 cell line; HCT-116, Table 4): 39% | CDK4 % Inhibition at 0.03 μM ([1]; 0.03 μM compound, Table 4): 20%

CCCSc1ncccc1C(=O)N1CCC(Nc2nc(N)c(C(=O)c3c(F)cccc3F)s2)CC1 [Example R28]
CDK2 % Inhibition at 0.03 μM (CDK2/Cyclin A; at 0.03 μM): 58% | HCT-116 % Inhibition at 0.1 μM (HCT-116 cell line; HCT-116 cells, at 0.1 μM): 0% | HCT-116 5 Inhibition at 0.25 μM (HCT-116 cell line; HCT-116 cells): 41 | CDK4 % Inhibition at 0.03 μM ([1]; at 0.03 μM): 66%

Nc1nc(NC2CCN(C(=O)c3ccno3)CC2)sc1C(=O)c1c(F)cccc1F [Example R46]
CDK2 % Inhibition at 0.03 μM (CDK2/Cyclin A; at 0.03 μM): 71% | HCT-116 % Inhibition at 0.1 μM (HCT-116 cell line; HCT-116 cells, at 0.1 μM): 0.47% | HCT-116 5 Inhibition at 0.25 μM (HCT-116 cell line; HCT-116 cells): 37 | CDK4 % Inhibition at 0.03 μM ([1]; at 0.03 μM): 83%

Nc1nc(NC2CCN(C(=O)[C@H](Cc3ccccc3)NS(=O)(=O)c3cccc4ccccc34)CC2)sc1C(=O)c1c(F)cccc1F [Example R73]
CDK2 % Inhibition at 0.03 μM (CDK2/Cyclin A; at 0.03 μM): 6% | HCT-116 % Inhibition at 0.1 μM (HCT-116 cell line; HCT-116 cells, at 0.1 μM): 4% | HCT-116 5 Inhibition at 0.25 μM (HCT-116 cell line; HCT-116 cells): 38 | CDK4 % Inhibition at 0.03 μM ([1]; at 0.03 μM): 19%
